Results published in patent US20050182039A1, “Use of Loteprednol etabonate for the treatment of dry eye” (Bausch & Lomb Incorporated, priority 2004, published 2005).

System: patients with KCS with inflammation
Test: four-week topical use of a Loteprednol etabonate ophthalmic formulation in patients with KCS with inflammation
Assay type: in vivo, human
Description: U.S. Patent Application. Publication No. 20030008853 discloses 22,29-epoxy-3,4,6,7,29-pentahydroxy-,(3α,4β,5α,6α,7-β,14β,22S)-stigmastan-15-one as useful for treating dry eye disorders and other disorders requiring the wetting of the eye. This publication further notes that corticosteroids, such as prednisolone, dexamethasone, fluoromethalone, hydrocortisone, loteprednol, triamcinolone, etc., cannot be used for prolonged therapy in dry eye patients without causing side effects. This publication further notes that steroid-related complications including increased intraocular pressure and cataract formation have been observed in dry eye patients treated with corticosteroids after several months of therapy.

Question: `CCOC(=O)O[C@]1(C(=O)OCCl)CC[C@H]2[C@@H]3CCC4=CC(=O)C=C[C@]4(C)[C@H]3[C@@H](O)C[C@@]21C` [Loteprednol etabonate, (11β,17α),-17-[(Ethoxycarbonyl)oxy]-11-hydroxy-3-oxoandrosta-1,4-diene-17-carboxylic acid chloromethyl ester] was tested. Which “treatment effect in subsets of patients with a moderate to severe inflammatory component (more severe KCS)” value (patient subsets with moderate to severe inflammatory component) did it give?
Answer: Its value is “differential treatment effect, which was in some cases significant”.

Question: What about the “efficacy in the management of patients with KCS with inflammation” value (used for four weeks) of the same compound?
Answer: Its value is “efficacious”.

Question: And the “tolerability in the management of patients with KCS with inflammation” value (used for four weeks)?
Answer: The value was “well tolerated”.
